Among the test systems are ACHN renal; HCT-116 colon; HCT-15 colon; HT29 colon; MALME-3M melanoma; NCI-H226 lung; OVCAR-8 ovarian; SF-295 CNS; SK-MEL-2 melanoma; SNB-19 CNS.
Common to all, as to assay: DTP human tumour cell line panel, 48 h

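Cultured in 96-well plates, cells were exposed to test compound for 48 hours across five concentrations. At the GI50, growth is halved. TGI: concentration producing complete growth inhibition.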 Bounds are passed on as bounds.

On to `Cn1c(=O)c2c(ncn2CN2CCN(Cn3cnc4c3c(=O)n(C)c(=O)n4C)CC2)n(C)c1=O`, for which the TGI was > 100 µM in the assay on ACHN renal; 34.6 µM with HCT-116 colon; > 100 µM in the assay with HCT-15 colon; > 100 µM in the assay with HT29 colon; > 100 µM with MALME-3M melanoma; > 100 µM in the assay on NCI-H226 lung. The TGI in the assay with OVCAR-8 ovarian, with SF-295 CNS, in the assay on SK-MEL-2 melanoma and with SNB-19 CNS was > 100 µM throughout.
For `CCOC(=O)C(/C=N\C(=S)Nc1ccc(OCC)cc1)=C(/O)c1ccccc1`, the TGI with ACHN renal, with HCT-116 colon, in the assay on HCT-15 colon, in the assay on HT29 colon, with MALME-3M melanoma and in the assay on NCI-H226 lung was > 100 µM in each case. Besides, the TGI in the assay on OVCAR-8 ovarian, with SF-295 CNS, with SK-MEL-2 melanoma and in the assay with SNB-19 CNS was > 100 µM throughout.
For `Cc1cc(N/N=C/c2nc(-c3ccc(Cl)cc3)oc2C)c2cc(Cl)ccc2n1`, the GI50 in the assay with ACHN renal was 1.95 µM; in the assay with HCT-116 colon it was 2.14 µM; with HCT-15 colon, 1.68 µM; with HT29 colon, 1.97 µM; in the assay with MALME-3M melanoma, 1.78 µM; in the assay on NCI-H226 lung it was 17 µM. Also, the GI50 with OVCAR-8 ovarian was 2.05 µM; with SF-295 CNS, 10.2 µM; in the assay with SK-MEL-2 melanoma, 16.4 µM; with SNB-19 CNS, 3.95 µM. Further, the TGI in the assay on ACHN renal was determined as 3.78 µM; with HCT-116 colon, 4.59 µM; with HCT-15 colon, 3.66 µM; in the assay with HT29 colon it was 4.95 µM; in the assay on MALME-3M melanoma, 3.36 µM; in the assay with NCI-H226 lung, 38.3 µM. Also, the TGI in the assay with OVCAR-8 ovarian was found to be 5.06 µM; with SF-295 CNS, 22.6 µM; with SK-MEL-2 melanoma, 31.8 µM; with SNB-19 CNS it was 16.1 µM.
With `COc1ccc(-c2cn[nH]c2-c2cc(OC)c3c(c2)OCCO3)cc1`, the GI50 with ACHN renal was 1.26 µM; in the assay with HCT-116 colon it was 0.0708 µM; in the assay on HCT-15 colon, 0.0635 µM; with HT29 colon, 0.0421 µM; in the assay on MALME-3M melanoma it was 20.9 µM; in the assay on NCI-H226 lung, 2.07 µM. In addition, the GI50 is 0.363 µM in the assay with OVCAR-8 ovarian, 0.0735 µM with SF-295 CNS, 0.0685 µM in the assay with SK-MEL-2 melanoma and 0.33 µM with SNB-19 CNS. In addition, the TGI in the assay with ACHN renal is > 100 µM; in the assay with HCT-116 colon, 13.9 µM; in the assay with HCT-15 colon, 22.4 µM; in the assay on HT29 colon, 11.2 µM; in the assay with MALME-3M melanoma, 58.7 µM; in the assay on NCI-H226 lung, 23.4 µM. Further, the TGI was 21 µM in the assay with OVCAR-8 ovarian, 12.1 µM in the assay on SF-295 CNS, 16.1 µM in the assay with SK-MEL-2 melanoma and > 100 µM with SNB-19 CNS.
As to `O=C1CCCN1CC#CCN1CCCC1`, the GI50 in the assay with ACHN renal, with HCT-116 colon, with HCT-15 colon, with HT29 colon, in the assay with MALME-3M melanoma and with NCI-H226 lung was > 100 µM throughout. Moreover, the GI50 in the assay with OVCAR-8 ovarian, with SF-295 CNS, in the assay with SK-MEL-2 melanoma and in the assay with SNB-19 CNS was > 100 µM throughout. Moreover, the concentration for total growth inhibition (TGI) in the assay with ACHN renal, in the assay on HCT-116 colon, with HCT-15 colon, with HT29 colon, in the assay with MALME-3M melanoma and in the assay on NCI-H226 lung was > 100 µM in each case. In addition, the TGI in the assay on OVCAR-8 ovarian, with SF-295 CNS, in the assay on SK-MEL-2 melanoma and with SNB-19 CNS was > 100 µM throughout.
As for `COC(=O)CCCCCN=Cc1c(O)c(O)c(C(C)C)c2cc(C)c(-c3c(C)cc4c(C(C)C)c(O)c(O)c(C=NCCCCCC(=O)OC)c4c3O)c(O)c12`, the GI50 is 1.42 µM in the assay with ACHN renal; 1.23 µM in the assay with HCT-116 colon; 1.55 µM in the assay with HCT-15 colon; 1.29 µM with HT29 colon; 2.45 µM in the assay on MALME-3M melanoma; 3.15 µM in the assay on NCI-H226 lung. The GI50 was 1.27 µM in the assay on OVCAR-8 ovarian, 0.911 µM with SF-295 CNS, 2.2 µM in the assay on SK-MEL-2 melanoma and 1.21 µM in the assay with SNB-19 CNS. For the same compound, the TGI was > 32.5 µM with ACHN renal; > 32.5 µM in the assay on HCT-116 colon; > 32.5 µM with HCT-15 colon; > 32.5 µM in the assay on HT29 colon; > 32.5 µM with MALME-3M melanoma; 19 µM with NCI-H226 lung. Besides, the TGI in the assay on OVCAR-8 ovarian is > 32.5 µM; in the assay on SF-295 CNS it was 5.34 µM; in the assay with SK-MEL-2 melanoma, 28.7 µM; with SNB-19 CNS, > 32.5 µM.
In the case of `COc1ccc2c(c1)[n+]([O-])c(/C(C)=N/NC(=O)CC#N)c[n+]2[O-]`, the total growth inhibition concentration (TGI) with ACHN renal, with HCT-116 colon, in the assay on HCT-15 colon, with HT29 colon, in the assay on MALME-3M melanoma and with NCI-H226 lung was > 100 µM each time. The TGI in the assay on OVCAR-8 ovarian, with SF-295 CNS, with SK-MEL-2 melanoma and in the assay on SNB-19 CNS was > 100 µM each time.
Consider `N#C[C@@H]1C(n2ccc(N)nc2=O)O[C@H](CO)[C@H]1O` (stereo not given in full), for which the GI50 in the assay with ACHN renal is 1.47 µM; with HCT-116 colon it was 2.66 µM; in the assay on HCT-15 colon, > 100 µM; in the assay on HT29 colon it was > 85 µM; in the assay with MALME-3M melanoma, > 55.4 µM; in the assay on NCI-H226 lung it was > 57 µM. Besides, the GI50 in the assay on OVCAR-8 ovarian is 6 µM; in the assay with SF-295 CNS, > 100 µM; in the assay with SK-MEL-2 melanoma, > 100 µM; with SNB-19 CNS, 10.3 µM. The TGI in the assay on ACHN renal, in the assay with HCT-116 colon, with HCT-15 colon, with HT29 colon, in the assay on MALME-3M melanoma and in the assay with NCI-H226 lung was > 100 µM each time. Moreover, the TGI in the assay on OVCAR-8 ovarian, in the assay with SF-295 CNS, in the assay on SK-MEL-2 melanoma and with SNB-19 CNS was > 100 µM in each case.
Consider `COC(=O)C1=C(CS(=O)c2ccccc2[N+](=O)[O-])ON(C)C1c1ccccc1` (stereo not given), for which the TGI in the assay on ACHN renal is > 100 µM; in the assay with HCT-116 colon it was > 100 µM; with HCT-15 colon, 76.3 µM; in the assay on HT29 colon, > 100 µM; in the assay with MALME-3M melanoma, > 100 µM; with NCI-H226 lung it was > 100 µM. Moreover, the TGI is 56.2 µM in the assay with OVCAR-8 ovarian, > 100 µM in the assay with SF-295 CNS, > 100 µM in the assay with SK-MEL-2 melanoma and > 100 µM in the assay on SNB-19 CNS.

What is called TGI is the concentration at which net growth stops. The low end stands for greater sensitivity of the cells, the high end for lower sensitivity of the cells. As usually defined, the GI50 is the concentration giving 50% growth inhibition.

These data come from PubChem BioAssay (NCI).
